# Reference: the supplement of paper PMC10307832
# Legend:
# Test in all cases: relative viability (nuclei count vs DMSO), 5 days (fraction); higher = more cells survive
# [1] = compound: Nc1ccn([C@@H]2O[C@H](CO)[C@@H](O)C2(F)F)c(=O)n1 [Gemcitabine] + COc1cc2c(Oc3ccc(NC(=O)C4(C(=O)Nc5ccc(F)cc5)CC4)cc3F)ccnc2cc1OCCCN1CCOCC1 [Foretinib] (partner 0.25 µM)
# Method in brief: (§1)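 A single step with final 0.05% Triton X-100, 1% formaldehyde and 1 ug/ml Hoechst fixed the cells and stained nuclei 5 days after treatment. Lung cancer cell lines in 1536-well plates had been treated by pin tool the day after seeding with one drug alone or a fixed anchor-drug dose plus five library-drug doses (not always all listed) in √10 steps, and nuclei were counted on 4× images. Relative viability is the ratio of nuclei in treated wells to nuclei in vehicle wells, taken as the median of duplicate plates.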
# [2] = compound: Nc1ccn([C@@H]2O[C@H](CO)[C@@H](O)C2(F)F)c(=O)n1 [Gemcitabine] + CS(=O)(=O)N1CCN(Cc2cc3nc(-c4cccc5[nH]ncc45)nc(N4CCOCC4)c3s2)CC1 [Pictilisib] (partner 1 µM)
# Method in brief: as §1
# [3] = compound: Nc1ccn([C@@H]2O[C@H](CO)[C@@H](O)C2(F)F)c(=O)n1 [Gemcitabine] + NC(=O)Nc1cc(-c2cccc(F)c2)sc1C(=O)N[C@H]1CCCNC1 [AZD7762] (partner 0.2 µM)
# Method in brief: as §1
# [4] = compound: Nc1ccn([C@@H]2O[C@H](CO)[C@@H](O)C2(F)F)c(=O)n1 [Gemcitabine] + O=C(CCCCCCC(=O)Nc1ccccc1)NO [Vorinostat] (partner 1 µM)
# Method in brief: as §1
Cell Line,relative viability ([1]; first compound 0.001 µM),relative viability ([1]; first compound 0.003162 µM),relative viability ([1]; first compound 0.01 µM),relative viability ([1]; first compound 0.03162 µM),relative viability ([1]; first compound 0.1 µM),relative viability ([2]; first compound 0.001 µM),relative viability ([2]; first compound 0.003162 µM),relative viability ([2]; first compound 0.01 µM),relative viability ([2]; first compound 0.03162 µM),relative viability ([2]; first compound 0.1 µM),relative viability ([3]; first compound 0.001 µM),relative viability ([3]; first compound 0.003162 µM),relative viability ([3]; first compound 0.01 µM),relative viability ([3]; first compound 0.03162 µM),relative viability ([3]; first compound 0.1 µM),relative viability ([4]; first compound 0.001 µM),relative viability ([4]; first compound 0.003162 µM),relative viability ([4]; first compound 0.01 µM),relative viability ([4]; first compound 0.03162 µM),relative viability ([4]; first compound 0.1 µM)
NCI-H1975,1.03,0.962,0.555,0.156,0.138,0.315,0.282,0.229,0.168,0.136,0.699,0.353,0.19,0.247,0.204,0.741,0.714,0.372,0.18,0.186
NCI-H1437,1.28,1.14,0.867,0.442,0.209,0.409,0.457,0.258,0.118,0.0772,1.16,0.951,0.171,0.159,0.124,0.749,0.792,0.645,0.398,0.232
NCI-H1651,0.805,0.771,0.596,0.137,0.0964,0.501,0.54,0.409,0.136,0.0858,0.519,0.435,0.39,0.0714,0.0892,0.555,0.537,0.548,0.301,0.115
LCLC-103H,0.78,0.853,0.663,0.348,0.233,0.579,0.641,0.659,0.627,0.417,0.788,0.761,0.66,0.24,0.215,0.761,0.856,0.754,0.585,0.46
NCI-H1666,0.9,0.991,0.889,0.619,0.428,0.326,0.471,0.306,0.284,0.274,0.866,0.699,0.582,0.332,0.368,1.02,0.955,0.963,0.927,0.576
NCI-H1734,0.781,0.653,0.287,0.131,0.126,0.455,0.387,0.233,0.151,0.113,0.153,0.118,0.0866,0.113,0.0969,0.746,0.626,0.119,0.114,0.0915
EPLC-272H,0.636,0.815,0.416,0.075,0.0466,0.286,0.115,0.304,0.232,0.143,0.19,0.141,0.0918,0.101,0.0686,0.25,0.29,0.254,0.112,0.056
BEN,0.77,0.575,0.303,0.112,0.119,0.547,0.477,0.258,0.128,0.119,0.441,0.252,0.184,0.184,0.253,0.653,0.55,0.309,0.253,0.331
